Test results reported in patent US9790551B2, “Use of TRPC6 mRNA levels in peripheral blood cells for early detection/diagnosis of senile dementia” (Aging Wise Biotechnology, Inc., priority 2013, dated 2017).

What was measured:
[1] = system: γ-secretase; details: phase 3 clinical trial, cited from earlier work
[2] = system: Aβ levels in primary cultured cortical neurons; test: Aβ levels in primary cultured cortical neurons treated with TAT-TM2; format: cell-based
Procedure: (§1) Upon collecting the culture medium of the cells, Aβ40 and Aβ42 levels were quantified with sandwich ELISA kit, respectively (purchased from Invitrogen). The forebrain of the mouse was dissected and separated, and then homogenized with GuHCL. After that, total Aβ was determined by ELISA. For determining TBST(Tris-Buffered Saline and 1% TritonX100, 1% SDS, 1% DOC) soluble and insoluble Aβ, upon TBST homogenation and centrifugation of the forebrain of the mouse, the supernatant was determined for TBST soluble Aβ by ELISA, and the precipitate was determined for TBST insoluble Aβ by ELISA upon another GuHCL homogenate.
6.1.3 The Effect of the Fusion Peptide TAT-TM2 on Aβ Levels in Primary Cultured Cortical Neurons was Determined and the Results were Shown in FIG. 9c: […]

[3] = system: γ-secretase cleavage of C99; test: Aβ ELISA, C0S7C99 cells treated with peptide; format: cell-based; details: Table 11; C0S7-C99 stable cells, 5 um peptide for 12 h; TAT = 1
Procedure: (§2) C99 is the C-terminal 99 amino acids of APP and the direct substrate of γ-secretase. C0S7C99 cells were passaged in 12-well plate till the density approached 100%. Each well was treated with 5 um peptide for 12 h and the Aβ levels in the culture medium was determined with ELISA.

[4] = system: γ-secretase cleavage of Notch; test: NICD immunoblotting, Notch-transfected cells treated with peptide; format: cell-based; details: 5 um peptide for 12 hr
Procedure: Cells were passaged in 12-well plate till the density approached 80%, Each well was transfected with 1 ug Notch plasmid using Lipofectamine 2000. 24 hr later, cells were treated with 5 um peptide for 12 hr. The Notch protein expression was determined by immunoblotting. Wherein, NICD (notch intracellular domain) was the intracellular fragment produced by γ-secretase cleavage of NotchΔE-myc, reflecting the level of γ-secretase cleavage of Notch.

[5] = system: Aβ levels in APP/PS1 mice; test: Brain Aβ levels in APP/PS1 mice after intraperitoneal injection of peptide; format: in vivo; details: intraperitoneally injected, brain tissue 3 hours later
Procedure: 6. Construction of APP/PS1 AD Mouse Models • a) APP/PS1 mice (with B6C3 background) were purchased from Jackson laboratory (#004462). • b) Construction of TRPC6 transgenic mouse
as §1
TAT or TAT-TM2 was intraperitoneally injected into APP/PS1 mice, and brain tissue samples were prepared 3 hours later and the Aβ levels were determined: general method 8 (n=8)

[6] = system: Aβ levels in HEK293APP stable cells; test: Aβ ELISA, HEK293APP stable cells treated with TAT fusion peptides; format: cell-based
Procedure: as §1
In this Example, the second transmembrane domain (487-507aa, TM2) was selected to fuse with cell penetrating peptide TAT and the fusion peptide TAT-TM2 and the mutant thereof TAT-TM2mut were obtained. Their effects on Aβ levels were examined in HEK293APP stable cells.
6.1.2 The Effect of Different Doses of Fusion Protein TAT-TM2 on Aβ Levels in HEK293APP Stable Cells were Determined.
To search for shorter fragments which could inhibit Aβ levels, TM2 was divided into N- and C-terminals and fused with TAT respectively. The effects of TAT-TM2-N, TAT-TM2-C and TAT-TM2-C mutant on Aβ levels in HEK293APP cells was examined.

[7] = system: γ-secretase cleavage of C99; test: C99-GVP/UAS luciferase reporter system with peptide; format: cell-based; details: Table 11; luciferase activity; TAT = 1
Procedure: HEK293APP were transfected with C99-GVP/UASLuciferase, CTRL or TRPC6 plasmids, and were lysed 24 hours later. The luciferase activities were determined using the Luciferase assay system (purchased from Promega). β-gal was co-transfected to normalize the transfection efficiency.
as §2

[8] = system: Aβ levels in primary cultured rat cortical neurons; test: Aβ ELISA of medium, primary cultured rat cortical neurons electrotransfected with siRNA; format: cell-based; details: Table 6, 7 days after electrotransfection, control siRNA = 1
Procedure: as §1
Fetal rat was collected on the 17th day of SD rat pregnancy. Cortical neurons of the rat brains were separated, obtained, and electrotransfected by Nucleofector Device (Amaxa) with TRPC6 siRNA1 as set forth by SEQ ID NO.:12 (sense strand) and SEQ ID NO.:13 (anti-sense strand), TRPC6 siRNA2 as set forth by SEQ ID NO.:18 ([…], sense strand) and SEQ ID NO.:19 ([…], anti-sense strand), control siRNAs as set forth by SEQ ID NO.:14 (sense strand) and SEQ ID NO.:15 (anti-sense strand), and TRPC5 siRNA as set forth by SEQ ID NO.:20 ([…], sense strand) and SEQ ID NO.:21 ([…], anti-sense strand). 7 days after electrotransfection, Aβ levels in the medium were examined by ELISA.

[9] = system: TRPC5 mRNA; test: TRPC5 mRNA in Jurkat cells after APOE-containing culture medium; format: cell-based, human; details: after 5 hr
Procedure: (§3) The culture medium containing different APOE isoforms were added into the Jurkat cells (human T cell line from peripheral blood). The mRNA levels of TRPC6 and TRPC5 were detected after 5 hr (mean±SE, n=5).

[10] = system: TRPC6 mRNA; test: TRPC6 mRNA in Jurkat cells after APOE-containing culture medium; format: cell-based, human; details: after 5 hr
Procedure: as §3

[11] = system: TRPC5 mRNA; test: TRPC5 mRNA in rat neurons after APOE-containing culture medium supernatant; format: cell-based; details: rat neurons cultured in vitro for 8 days, after 2 hr
Procedure: (§4) The culture medium supernatant containing different APOE isoforms were added into rat neurons cultured in vitro for 8 days. The mRNA levels of TRPC6 and TRPC5 were detected after 2 hr (mean±SE, n=8).

[12] = system: TRPC6 mRNA; test: TRPC6 mRNA in rat neurons after APOE-containing culture medium supernatant; format: cell-based; details: rat neurons cultured in vitro for 8 days, after 2 hr
Procedure: as §4

[13] = system: TRPC6 mRNA; format: cell-based
[14] = Table 5, HEK293APP stable cells, 2 uM, TAT = 1
[15] = Table 5, HEK293APP stable cells, 5 uM, TAT = 1
[16] = Table 5, HEK293APP stable cells, 10 uM, TAT = 1
[17] = Table 8, HEK293APP stable cells, TAT = 1
[18] = Table 5, HEK293APP stable cells, TAT control line, concentration not given
[19] = Table 9, TAT-TM2 variants, HEK293APP cells, TAT = 1

CC(C)[C@H](O)C(=O)N[C@@H](C)C(=O)N[C@@H]1C(=O)N(C)CCc2ccccc21 [Semagacestat]
adverse gastrointestinal reaction ([1]; AD patients): increased
risk of skin cancer ([1]; AD patients): increased
cognitive function of the AD patients [1]: declined

TAT-TM2: fusion peptide of TRPC6 second transmembrane domain (487-507aa) and TAT, SEQ ID NO.:17, TSCFSWMEMLIISWVIGMIWAGRKKRRQRRRC (fusion peptide)
Aβ40, of the control group [2]: 83%
Aβ42, of the control group [2]: 68%
Aβ40 [3]: 0.39 ± 0.11
Aβ42 [3]: 0.58 ± 0.04
NICD level (γ-secretase cleavage of NotchΔE-myc) [4]: did not affect NICD level
Aβ40 [5]: 91.12 ± 43.56 pg/mg
Aβ42 [5]: 277.40 ± 124.10 pg/mg
Aβ40 [6, 14]: 0.6825 ± 0.0498
Aβ42 [6, 14]: 0.6244 ± 0.03189
Aβ40 [6, 15]: 0.4863 ± 0.05919
Aβ42 [6, 15]: 0.3255 ± 0.02046
Aβ40 [6, 16]: 0.2481 ± 0.0763
Aβ42 [6, 16]: 0.2214 ± 0.01597
Aβ40 [6, 17]: 0.39 ± 0.03
Aβ42 [6, 17]: 0.40 ± 0.06
C99-GVP/UAS luciferase reporter system [7]: 0.82 ± 0.02

TRPC6 siRNA-2: TRPC6 siRNA, SEQ ID NO.:18 GCUUGACUUUGGAAUGUUATT and SEQ ID NO.:19 UAACAUUCCAAAGUCAAGCTT (chemistry not given here)
Aβ40 [8]: 1.33 ± 0.13
Aβ42 [8]: 1.63 ± 0.17

APOE4: culture medium supernatant containing APOE4 isoform
TRPC5 mRNA levels [9]: could not affect TRPC5 mRNA levels
TRPC6 mRNA levels [10]: could not affect TRPC6 mRNA levels
TRPC5 mRNA levels [11]: could not affect the TRPC5 mRNA levels
TRPC6 mRNA levels [12]: could not affect the TRPC6 mRNA levels

TAT (GRKKRRQRRRC; fusion peptide) [reference compound]
Aβ40 [3]: 1
Aβ42 [3]: 1
Aβ40 [5]: 169.70 ± 61.78 pg/mg
Aβ42 [5]: 492.60 ± 157.70 pg/mg
Aβ40 [6, 18]: 1
Aβ42 [6, 18]: 1
Aβ40 [6, 17]: 1
Aβ42 [6, 17]: 1
Aβ40 [6, 19]: 1
Aβ42 [6, 19]: 1
C99-GVP/UAS luciferase reporter system [7]: 1

TRPC6 siRNA-1: TRPC6 siRNA, SEQ ID NO.:12 (sense strand) and SEQ ID NO.:13 (anti-sense strand) (sense CGGUGGUCAUCAACUACAATT; antisense UUGUAGUUGAUGACCACCGTT; chemistry not given here)
Aβ40 [8]: 1.49 ± 0.16
Aβ42 [8]: 1.89 ± 0.21

[Cl-].[Cl-].[Co+2] [CoCl2]
TRPC6 expression (mRNA) [13]: could upregulate TRPC6 expression

TRPC5 siRNA: TRPC5 siRNA, SEQ ID NO.:20 AACGCCUUCUCCACGCUCUUU and SEQ ID NO.:21 AAAGAGCGUGGAGAAGGCGUU (listed as RNA, chemistry not given here)
Aβ40 [8]: 0.96 ± 0.09
Aβ42 [8]: 1.03 ± 0.02

Control siRNA: control siRNAs, SEQ ID NO.:14 (sense strand) and SEQ ID NO.:15 (anti-sense strand) (sense GCACACCGAAGGAUAUUCUTT; antisense AGAAUAUCCUUCGGUGUGCTT; chemistry not given here)
Aβ40 [8]: 1
Aβ42 [8]: 1
